These are literature values, as cited in paper PMC5571359, “Screening the Medicines for Malaria Venture Pathogen Box across Multiple Pathogens Reclassifies Starting Points for Open-Source Drug Discovery” (Antimicrobial Agents and Chemotherapy, 2017).

Broadly, the EC50 is the concentration that produces a half-maximal response. The term IC50 denotes the midpoint of a concentration-inhibition curve.

Each structure is given as a SMILES string.

In the first data set the test system is P. falciparum ABS. The following applies: ChEMBL Data; P. falciparum; read-out: NITD (ref 94) EC50; cited from earlier work.
For the compound `CCc1cc(=O)n(C)c(SC(C)C(=O)Nc2ccc(F)cc2)n1` (centres unmarked) [MMV688980], the EC50 was 0.76 µM.

The data set is the same for the next values; noted with them: P. falciparum 3D7; ref PBox supporting information; read-out: Pf 3D7 Pbox IC50; cited from earlier work.
On to `CCn1cnc2c(Nc3cc(F)cc(F)c3)nc(C#N)nc21` [MMV676881], for which the IC50 is 0.9 µM.

`CN1CCN(S(=O)(=O)c2ccc(-c3ccc4c(Nc5ccc6nn[nH]c6c5)ccnc4c3)cc2)CC1` [MMV687246]: the IC50 was 0.42 µM.

Consider `CCc1cc(=O)n(C)c(SC(C)C(=O)Nc2ccc(F)cc2)n1` (centres unmarked) [MMV688980], for which the IC50 was 1.97 µM.

Another data set concerns HepG2. The following applies: HepG2; ref PBox supporting information; cited from earlier work.
Take `CNCCC(Oc1ccc(C(F)(F)F)cc1)c1ccccc1` (centres unmarked) [MMV001561]: the “HepG2 PBox CC20” value is 9.0 µM.

Turning to `Clc1ccc(-n2cc(COc3ccnc4ccccc34)nn2)cc1` [MMV675994], the “HepG2 PBox CC20” value was 13.6 µM. Take `COc1cc(NC(=O)Cc2nn(C)c(=O)c3ccccc23)ccc1Cl` [MMV676053]: the “HepG2 PBox CC20” value was greater than 80 µM. With `Nc1ncnc2c1c(Cc1cccc3ccccc13)nn2CC1CCNCC1` [MMV676182], the “HepG2 PBox CC20” value is greater than 80 µM. Turning to `CC(C)C(Oc1cccc2ccccc12)C(=O)O` (centres unmarked) [MMV676191], the “HepG2 PBox CC20” value was greater than 80 µM. For `CC(C)(C)n1nc(Cc2cccc3ccccc23)c2c(N)ncnc21` [MMV676599], the “HepG2 PBox CC20” value was 19 µM.

Still in this data set, the particulars now being: HepG2 CC20; ref Pathogen Box supporting information; cited from earlier work.
As to `O=C(Nc1nnc(S)s1)c1cc(Br)ccc1Cl` [MMV676492], the “HepG2 PBox CC20 μMc” value was greater than 80 µM.

The data set is the same for the next values; noted with them: cited from earlier work.
For `COC(=O)C1=C(C)NC(C)=C(C(=O)OC(C)C)C1c1cccc2nonc12` (centres unmarked) [MMV001493], the “HepG2 PBox CC20 μMc” value was 66 µM. On to `Cc1nn(Cc2ccccc2)c(Cl)c1C(=O)NC1CCCCCC1` [MMV063404], for which the CC50 is greater than 100 µM. Consider `Cc1cc(O)nc(-n2nc(C)cc2C)n1` [MMV393995], for which the CC50 is 60.7 µM. For `CN1CCC[C@@H]1CCO[C@](C)(c1ccccc1)c1ccc(Cl)cc1` [MMV637229, clemastine, reference compound], the “HepG2 PBox CC20 μMc” value was 9.3 µM.

The data set is the same for the next values; noted with them: read-out: HepG2 PBox CC50 µM; HepG2 cytotoxicity; ref PBox supporting information; cited from earlier work.
Take `Cc1nc2ccccn2c1C(=O)NCc1ccc(Cl)cc1` [MMV012074]: the CC50 is greater than 100 µM. As to `COc1cc(C(F)(F)F)nc2ccc(C)c(N)c12` [MMV047015], the CC50 was greater than 100 µM. For `N#Cc1ccc(-c2ccc(OCC(N)=O)cc2)cc1` [MMV053220], the CC50 is greater than 100 µM. With `FC(F)(F)c1nnc2ccc(Cl)nn12` [MMV069458], the CC50 was greater than 100 µM.

In the case of `CCOC(=O)NC(=O)c1ccsc1NC(=O)c1nc2ccccc2s1` [MMV090930], the CC50 is 47 µM.

In the case of `O=C(Nc1nnc(-c2ccc(Cl)cc2)o1)c1cccc(C(F)(F)F)c1` [MMV102872], the CC50 was 9 µM. Take `CCC(C)NC(=O)c1ccc(NC(=O)C2(c3ccccc3)CCCC2)cc1` (centres unmarked) [MMV146306]: the CC50 is greater than 100 µM.

Take `Cc1cc(Cl)ccc1NC(=O)CCc1ccc(S(=O)(=O)NCC(C)C)cc1` [MMV161996]: the CC50 is greater than 100 µM. As to `COc1ccc(C2(C(=O)Nc3ccc(Br)cc3)CCCC2)cc1` [MMV200748], the CC50 was greater than 100 µM. Take `COc1ccc(OC(C)C(=O)Nc2ccc(Cl)cc2C)cc1` (centres unmarked) [MMV202458]: the CC50 was greater than 100 µM. In the case of `COC(=O)c1c(NC(=O)c2c(F)c(F)c(F)c(F)c2F)sc2c1CCCCC2` [MMV461553], the CC50 is 7.5 µM. On to `CCC(Sc1nc2ccccc2o1)C(=O)Nc1nnc(C)s1` (centres unmarked) [MMV611037], for which the CC50 was greater than 100 µM. Consider `Brc1c(-c2ccc3c(c2)OCO3)nc2ncccn12` [MMV676377], for which the CC50 was greater than 100 µM. As for `COc1cccc(OCC(=O)c2ccc(Br)cc2)c1` [MMV676379], the CC50 is greater than 100 µM. Consider `N#Cc1nc(-c2ccccc2F)oc1NCCc1ccccc1` [MMV676384], for which the CC50 is greater than 100 µM.

For `Cc1cccc(Cn2ccc(NC(=O)c3ccc4c(c3)OCO4)n2)c1` [MMV676386], the CC50 is greater than 100 µM. As for `O=C(c1[nH]nc2c1CCCC2)N1CCN(Cc2ccc3c(c2)OCO3)CC1` [MMV676389], the CC50 is greater than 100 µM. As to `O=C(Nc1cccnc1)c1c(O)c2cccc3c2n(c1=O)CC3` [MMV676395], the CC50 is greater than 100 µM.

Regarding `c1coc(CNc2nc(N3CCCCC3)nc3ccccc23)c1` [MMV676401], the CC50 was 18.6 µM.

With `CC(C)n1ncc2c(C(=O)NCC(c3cccs3)N3CCOCC3)cc(-c3ccccc3)nc21` (centres unmarked) [MMV676406], the CC50 was 58 µM. As for `N#Cc1nc(-c2ccccc2)oc1S(=O)(=O)c1ccc(Cl)cc1` [MMV676412], the CC50 is 2.2 µM. Regarding `Cc1ccc(NC(=O)CC2COc3ccccc3O2)cc1Cl` (centres unmarked) [MMV676431], the CC50 was 66.7 µM.

Take `Cc1ccc2nc(Cl)c(CNCc3cccs3)cc2c1` [MMV676439]: the CC50 is greater than 100 µM. With `O=C(NC1CCCCC1)N1CCN(Cc2ccc3c(c2)OCO3)CC1` [MMV676444], the CC50 is greater than 100 µM. As for `CCCn1c(CNc2ccccc2O)nc2ccccc21` [MMV676445], the CC50 is 84.1 µM. Turning to `CCc1nc2ccccc2n1CC(O)COc1cc(C)ccc1Cl` (centres unmarked) [MMV676449], the CC50 was 43.2 µM. As to `CCOC(=O)c1cc(-c2csc(Nc3c(C)cc(C)cc3C)n2)on1` [MMV676461], the CC50 is 24.4 µM. As for `CCOc1ccc(OCC(=O)Nc2cc(C)cc(C)c2)cc1` [MMV676470], the CC50 is greater than 100 µM. With `COc1cccc(OC)c1C(=O)Nc1ccc(Cl)c(-c2nc3ccccc3s2)c1` [MMV676472], the CC50 was greater than 100 µM. For the compound `Cc1cc(C)cc(COc2ccc3c(C)c(CCC(=O)O)c(=O)oc3c2C)c1` [MMV676476], the CC50 was greater than 100 µM. For `CCc1c(C)nc(-n2nc(C)cc2NC(=O)c2ccccc2SC)[nH]c1=O` [MMV676477], the CC50 is 1.3 µM. As for `O=C(C1CCN(c2nnc(-n3cccc3)s2)CC1)N1CCC(Cc2ccccc2)CC1` [MMV676478], the CC50 is greater than 100 µM. On to `O=C(Nc1nnc(-c2ccc(Cl)s2)o1)c1ccc(Cl)s1` [MMV676501], for which the CC50 is 50.1 µM. For `Cc1ccc2oc(-c3cc(NC(=O)Cc4ccccc4)ccc3Cl)nc2c1` [MMV676509], the CC50 was 83.6 µM. For the compound `O=C(c1cc2ccccc2o1)N1CCN(Cc2ccc3c(c2)OCO3)CC1` [MMV676520], the CC50 is greater than 100 µM. `Nc1cccnc1Nc1ccc(Cl)cc1` [MMV676524]: the CC50 was 9 µM. Consider `COc1ccc(-c2cc(NC(=O)c3ccc(F)cc3Cl)ccc2OC)cc1` [MMV676526], for which the CC50 was greater than 100 µM. As to `O=C(NCCc1c[nH]c2ccccc12)c1cc2ccccc2oc1=O` [MMV676539], the CC50 is greater than 100 µM.

On to `COc1ccc(Nc2ccccc2NC(=O)c2ccc(O)nc2)cc1` [MMV676554], for which the CC50 is 42.5 µM.

Turning to `Cc1nnc(NCc2cccc(Cl)c2)c2ccccc12` [MMV676555], the CC50 is 76 µM. Take `CC1=NN(c2nc3ccccc3s2)C(=O)C1Cc1cccc2ccccc12` (centres unmarked) [MMV676558]: the CC50 was 21.9 µM. For the compound `COc1ccc(-c2nc(-c3cccc(NC(=O)Cc4ccc(F)cc4)c3)no2)cc1OC` [MMV676571], the CC50 is greater than 100 µM. On to `O=C(NC1=NCCS1)c1sc2cc(F)ccc2c1Cl` [MMV676584], for which the CC50 is greater than 100 µM.

As for `Nc1c2c(nc3sc4c(c13)CCCC4)CCCC2` [MMV676588], the CC50 was 34.9 µM. `O=C(CCC1CCCCC1)Nc1cccc(-c2nnc(-c3ccco3)o2)c1` [MMV676589]: the CC50 is greater than 100 µM. On to `CCCn1nnc(NC(=O)COc2ccc(C3CCCCC3)cc2)n1` [MMV676597], for which the CC50 was greater than 100 µM. Turning to `CC1COC2(CCN(c3nc(=O)c4cc(C(F)(F)F)cc([N+](=O)[O-])c4s3)CC2)O1` (centres unmarked) [MMV676603], the CC50 was greater than 100 µM. In the case of `NC(=O)c1cc(-c2ccsc2)ccc1OCCOc1ccccc1` [MMV687138], the CC50 was greater than 100 µM. For `CCCCS(=O)(=O)Nc1ccc2cnn(C)c2c1` [MMV687145], the CC50 is greater than 100 µM. `Cc1cc(C)c2cc(C(=O)NC3CCCCCCC3)[nH]c2c1` [MMV687146]: the CC50 was greater than 100 µM.

Take `COc1ccc(Cn2cnc3c(-c4ccco4)nc(Cl)nc32)cc1` [MMV687170]: the CC50 is greater than 100 µM.

For `O=C(C1CCN(c2cc(-n3cccc3)ncn2)CC1)N1CCc2ccccc2C1` [MMV687172], the CC50 was greater than 100 µM. For the compound `CCc1ccc([C@@H]2C[C@H](C(F)(F)F)n3ncc(C(=O)NCc4ccc(OC)cc4)c3N2)cc1` [MMV687180], the CC50 was 50.6 µM. On to `COc1ccc2nc(C)cc(OCC(=O)Nc3ccccc3OC)c2c1` [MMV687188], for which the CC50 is 57.4 µM.

For `COc1ccc2nc(C)cc(OCC(=O)NCc3ccccc3)c2c1` [MMV687189], the CC50 was greater than 100 µM.

The data set is the same for the next values; noted with them: ref Pbox supporting information; cited from earlier work.
As to `Oc1c(I)cc(I)c2cccnc12` [MMV002817], the “HepG2 PBox CC20 μMc” value was 2.5 µM. Consider `CCc1nc2ccc(C(=O)NCc3ccc4c(c3)OCO4)cn2c1N(C)Cc1cccs1` [MMV407539], for which the “HepG2 PBox CC20 μMc” value is 18.6 µM. With `Nc1ncc(-c2ccc(C(F)(F)F)nc2)cc1-c1ccc(C(F)(F)F)nc1` [MMV668727], the “HepG2 PBox CC20 μMc” value was greater than 80 µM.

Take `CC(C)(C)c1ccc(N[C@@H]2CCCC[C@H]2NC(=O)c2ccco2)cc1` [MMV675969]: the “HepG2 PBox CC20 μMc” value is 35.9 µM.

As to `COc1ccc(N(CCc2cccc(C)n2)C(C)=O)cc1` [MMV675995], the “HepG2 PBox CC20 μMc” value is greater than 80 µM. Consider `COc1ccc(N(CCc2cccc(C)n2)C(=O)C2CCCCC2)cc1` [MMV675996], for which the “HepG2 PBox CC20 μMc” value is greater than 80 µM. Take `CCCCc1ccc(NC(=O)Nc2ccc(O[C@H]3CCCC[C@@H]3N(C)c3ccccc3)c(F)c2)cc1` [MMV676063]: the “HepG2 PBox CC20 μMc” value was 5.8 µM. In the case of `CC(=O)N(CCN(C(=O)c1ccc(F)cc1)c1ccccc1)c1ccccc1` [MMV676064], the “HepG2 PBox CC20 μMc” value was 39 µM. Take `O=C(c1ccc(F)cc1)N(CCNc1ccccc1)c1ccccc1` [MMV676204]: the “HepG2 PBox CC20 μMc” value is 18.5 µM.

Regarding `Cn1ncc2c(N3CCOCC3)nc(NCCc3c[nH]c4ccccc34)nc21` [MMV676382], the “HepG2 PBox CC20 μMc” value is 4.6 µM. In the case of `CCS(=O)(=O)N(Cc1ccco1)Cc1cc2ccc(C)cc2nc1O` [MMV676398], the “HepG2 PBox CC20 μMc” value was greater than 80 µM. Consider `COC(=O)c1c(NC(=O)c2cc3ccccc3oc2=O)sc2c1CCN(Cc1ccccc1)C2` [MMV676480], for which the “HepG2 PBox CC20 μMc” value is 12.3 µM. For the compound `COCC(C)NC(=O)CSc1ncnc2sc(-c3ccccc3)cc12` (centres unmarked) [MMV676536], the “HepG2 PBox CC20 μMc” value was greater than 80 µM.
